According to patent publication US8192962B2, “Processes for detecting toxic substances” (Daikin Industries, Ltd., priority 2001, dated 2012):

Test system: Energy system protein genes
Assay: DNA chip mRNA expression in yeast, energy system protein genes (Table 4)
Type: cell-based, Saccharomyces cerevisiae S288C
Procedure, shortened: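 Untreated cultures served as reference for log-phase S288C yeast given a growth-inhibiting, non-lethal toxicant dose for 2 h at 25° C. in YPD. Gene expression was measured on a whole-genome DNA chip from Cy3/Cy5-labeled cDNA.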

Substance: manganese ethylenebis(dithiocarbamate) [(8)]
- The level of expressed mRNA in the presence of chemical substance/The level of expressed mRNA in the absence of chemical substance (yeast gene YAL060W): 0.9
- The level of expressed mRNA in the presence of chemical substance/The level of expressed mRNA in the absence of chemical substance (yeast gene YBL058W, cells incubated two hours with the chemical substance): 1.2
- The level of expressed mRNA in the presence of chemical substance/The level of expressed mRNA in the absence of chemical substance (yeast gene YBL099W, cells incubated two hours with the chemical substance): 0.8
- The level of expressed mRNA in the presence of chemical substance/The level of expressed mRNA in the absence of chemical substance (yeast gene YBR001C, cells incubated two hours with the chemical substance): 1.3
- The level of expressed mRNA in the presence of chemical substance/The level of expressed mRNA in the absence of chemical substance (yeast gene YBR185C, cells incubated two hours with the chemical substance): 1.1
- The level of expressed mRNA in the presence of chemical substance/The level of expressed mRNA in the absence of chemical substance (yeast gene YBR221C, cells incubated two hours with the chemical substance): 0.8
- The level of expressed mRNA in the presence of chemical substance/The level of expressed mRNA in the absence of chemical substance (yeast gene YCL040W): 0.7
- The level of expressed mRNA in the presence of chemical substance/The level of expressed mRNA in the absence of chemical substance (yeast gene YCR012W): 0.8
- The level of expressed mRNA in the presence of chemical substance/The level of expressed mRNA in the absence of chemical substance (yeast gene YCR046C, cells incubated two hours with the chemical substance): 0.9
- The level of expressed mRNA in the presence of chemical substance/The level of expressed mRNA in the absence of chemical substance (yeast gene YCR105W, cells incubated two hours with the chemical substance): 1.4
- The level of expressed mRNA in the presence of chemical substance/The level of expressed mRNA in the absence of chemical substance (yeast gene YDL021W): 2.7
- The level of expressed mRNA in the presence of chemical substance/The level of expressed mRNA in the absence of chemical substance (yeast gene YDL067C, cells incubated two hours with the chemical substance): 1.1
- The level of expressed mRNA in the presence of chemical substance/The level of expressed mRNA in the absence of chemical substance (yeast gene YDL078C, cells incubated two hours with the chemical substance): 1.0
- The level of expressed mRNA in the presence of chemical substance/The level of expressed mRNA in the absence of chemical substance (yeast gene YDL107W, cells incubated two hours with the chemical substance): 1.8
- The level of expressed mRNA in the presence of chemical substance/The level of expressed mRNA in the absence of chemical substance (yeast gene YDL174C): 0.8
- The level of expressed mRNA in the presence of chemical substance/The level of expressed mRNA in the absence of chemical substance (yeast gene YDL181W, cells incubated two hours with the chemical substance): 0.6
- The level of expressed mRNA in the presence of chemical substance/The level of expressed mRNA in the absence of chemical substance (yeast gene YDR001C): 0.9
- The level of expressed mRNA in the presence of chemical substance/The level of expressed mRNA in the absence of chemical substance (yeast gene YDR050C, cells incubated two hours with the chemical substance): 1.3
- The level of expressed mRNA in the presence of chemical substance/The level of expressed mRNA in the absence of chemical substance (yeast gene YDR079W, cells incubated two hours with the chemical substance): 2.6
- The level of expressed mRNA in the presence of chemical substance/The level of expressed mRNA in the absence of chemical substance (yeast gene YDR178W, cells incubated two hours with the chemical substance): 0.9
- The level of expressed mRNA in the presence of chemical substance/The level of expressed mRNA in the absence of chemical substance (yeast gene YDR231C): 1.3
- The level of expressed mRNA in the presence of chemical substance/The level of expressed mRNA in the absence of chemical substance (yeast gene YDR298C, cells incubated two hours with the chemical substance): 1.2
- The level of expressed mRNA in the presence of chemical substance/The level of expressed mRNA in the absence of chemical substance (yeast gene YDR377W, cells incubated two hours with the chemical substance): 1.3
- The level of expressed mRNA in the presence of chemical substance/The level of expressed mRNA in the absence of chemical substance (yeast gene YDR529C, cells incubated two hours with the chemical substance): 1.3
- The level of expressed mRNA in the presence of chemical substance/The level of expressed mRNA in the absence of chemical substance (yeast gene YEL024W, cells incubated two hours with the chemical substance): 1.0
- The level of expressed mRNA in the presence of chemical substance/The level of expressed mRNA in the absence of chemical substance (yeast gene YEL039C, cells incubated two hours with the chemical substance): 1.1
- The level of expressed mRNA in the presence of chemical substance/The level of expressed mRNA in the absence of chemical substance (yeast gene YER178W): 0.8
- The level of expressed mRNA in the presence of chemical substance/The level of expressed mRNA in the absence of chemical substance (yeast gene YFL057C): 18.0
- The level of expressed mRNA in the presence of chemical substance/The level of expressed mRNA in the absence of chemical substance (yeast gene YFR053C): 2.8
- The level of expressed mRNA in the presence of chemical substance/The level of expressed mRNA in the absence of chemical substance (yeast gene YGL018C, cells incubated two hours with the chemical substance): 0.8
- The level of expressed mRNA in the presence of chemical substance/The level of expressed mRNA in the absence of chemical substance (yeast gene YGL062W): 0.8
- The level of expressed mRNA in the presence of chemical substance/The level of expressed mRNA in the absence of chemical substance (yeast gene YGL187C, cells incubated two hours with the chemical substance): 0.7
- The level of expressed mRNA in the presence of chemical substance/The level of expressed mRNA in the absence of chemical substance (yeast gene YGL191W, cells incubated two hours with the chemical substance): 1.6
- The level of expressed mRNA in the presence of chemical substance/The level of expressed mRNA in the absence of chemical substance (yeast gene YGL205W, cells incubated two hours with the chemical substance): 1.2
- The level of expressed mRNA in the presence of chemical substance/The level of expressed mRNA in the absence of chemical substance (yeast gene YGL256W, cells incubated two hours with the chemical substance): 1.0
- The level of expressed mRNA in the presence of chemical substance/The level of expressed mRNA in the absence of chemical substance (yeast gene YGR043C): 2.6
- The level of expressed mRNA in the presence of chemical substance/The level of expressed mRNA in the absence of chemical substance (yeast gene YGR062C, cells incubated two hours with the chemical substance, 25° C., YPD medium): 0.8
- The level of expressed mRNA in the presence of chemical substance/The level of expressed mRNA in the absence of chemical substance (yeast gene YGR087C, cells incubated two hours with the chemical substance): 0.8
- The level of expressed mRNA in the presence of chemical substance/The level of expressed mRNA in the absence of chemical substance (yeast gene YGR174C, cells incubated two hours with the chemical substance): 1.6
- The level of expressed mRNA in the presence of chemical substance/The level of expressed mRNA in the absence of chemical substance (yeast gene YGR192C): 1.1
- The level of expressed mRNA in the presence of chemical substance/The level of expressed mRNA in the absence of chemical substance (yeast gene YGR244C): 1.8
- The level of expressed mRNA in the presence of chemical substance/The level of expressed mRNA in the absence of chemical substance (yeast gene YGR254W): 1.4
- The level of expressed mRNA in the presence of chemical substance/The level of expressed mRNA in the absence of chemical substance (yeast gene YHR179W): 3.3
- The level of expressed mRNA in the presence of chemical substance/The level of expressed mRNA in the absence of chemical substance (yeast gene YIL160C): 1.2
- The level of expressed mRNA in the presence of chemical substance/The level of expressed mRNA in the absence of chemical substance (yeast gene YIR031C, cells incubated two hours with the chemical substance): 1.0
- The level of expressed mRNA in the presence of chemical substance/The level of expressed mRNA in the absence of chemical substance (yeast gene YJL052W): 1.5
- The level of expressed mRNA in the presence of chemical substance/The level of expressed mRNA in the absence of chemical substance (yeast gene YJL121C, cells incubated two hours with the chemical substance): 1.0
- The level of expressed mRNA in the presence of chemical substance/The level of expressed mRNA in the absence of chemical substance (yeast gene YJL166W, cells incubated two hours with the chemical substance): 1.4
- The level of expressed mRNA in the presence of chemical substance/The level of expressed mRNA in the absence of chemical substance (yeast gene YJL216C, cells incubated two hours with the chemical substance): 1.9
- The level of expressed mRNA in the presence of chemical substance/The level of expressed mRNA in the absence of chemical substance (yeast gene YJR009C): 1.1
